Assay results reported in PubChem BioAssay (NCI).
Several values for one entry are separate records, joined by “and”; a condition that tells them apart may be missing. Equal entries are not always repeated.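 In this assay, cells in 96-well plates receive the compound at five concentrations for 48 hours. Endpoints are linearly interpolated between the surrounding concentrations. At the GI50, growth is halved. TGI is the concentration that stops growth completely.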

How the values were obtained:
Assay in all cases: NCI tumour cell line growth inhibition, 48 h
786-0 renal = test system: 786-0 renal
MDA-N = test system: MDA-N
P388/ADR leukemia = test system: P388/ADR leukemia
SN12K1 renal = test system: SN12K1 renal
KM20L2 colon = test system: KM20L2 colon
SNB-78 CNS = test system: SNB-78 CNS
P388 leukemia = test system: P388 leukemia
RXF-631 renal = test system: RXF-631 renal
LXFL 529 NSCLC = test system: LXFL 529 NSCLC

SMILES | TGI (786-0 renal) [µM] | TGI (MDA-N) | TGI (P388/ADR leukemia) [µM] | TGI (SN12K1 renal) [µM] | TGI (KM20L2 colon) [µM] | TGI (SNB-78 CNS) [µM] | TGI (P388 leukemia) [µM] | TGI (RXF-631 renal) [µM] | TGI (LXFL 529 NSCLC) [µM] | GI50 (MDA-N) [µM]
Clc1ccc2c(NCCNc3ccnc4cc(Cl)ccc34)ccnc2c1 | 28.2 | 31.6 µM | – | – | – | – | – | – | – | –
COc1cccc2c1C(=O)c1c(O)c3c(c(O)c1C2=O)C[C@@](O)(/C(C)=N/NC(=O)c1ccccc1)C[C@@H]3OC1CC(N)C(O)C(C)O1 (some centres not stated) | 0.744 | 1.96 µM | 35.6 | 1.88 | 9.23 | 6.1 | 1.61 | – | – | –
NC(Cc1c[nH]c2ccccc12)C(=O)O (configuration not stated) | – | – | > 300 | > 300 | > 300 | > 300 | > 300 | – | – | –
Nc1nc(N)c2nc(-c3ccco3)cnc2n1 | > 100 | – | – | – | > 100 | > 100 | – | > 100 | > 100 | –
O=C1C=C(N2CC2)C(=O)C=C1N1CC1 | – | 0.274 µM and 1.9 µM | – | – | 1.74 | 1.8 | – | – | 0.527 | 0.113
CC[C@@]1(O)C(=O)OCc2c1cc1n(c2=O)Cc2c-1nc1ccccc1c2/C=N\NC(=O)C(N)Cc1cnc[nH]1 (some centres not stated) | – | > 100 µM | – | – | – | – | – | – | – | –
COc1ccc(CCCC(=O)O)c(C)c1 | > 100 | > 100 µM | – | – | – | – | – | – | – | –
